Measured values reported in ChEMBL document CHEMBL1201862, “PubChem BioAssay data set” (2004).
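How tested: cells in 96-well plates exposed to compound for 48 hours at five concentrations. Here, GI50 denotes the concentration required for 50% inhibition of growth.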 Activity calls are given as the source filed them. Rule as the data show it: active = GI50 up to about 1.1 µM and inactive = higher.

Columns and labels:
Experiment in all cases: NCI-60 cell line screen, 48 h
786-0 = test system: 786-0
A498 = test system: A498
ACHN = test system: ACHN
CCRF-CEM = test system: CCRF-CEM
KM12 = test system: KM12
OVCAR-3 = test system: OVCAR-3
OVCAR-4 = test system: OVCAR-4
OVCAR-5 = test system: OVCAR-5
RPMI-8226 = test system: RPMI-8226
SF-539 = test system: SF-539
SK-MEL-28 = test system: SK-MEL-28
SNB-19 = test system: SNB-19
SW-620 = test system: SW-620
U-251 = test system: U-251
UACC-257 = test system: UACC-257

Measured: GI50

CCOc1ccccc1NC(=O)C1=C(C)NC(C)=C(C(=O)Nc2ccccc2OCC)C1c1cccc([N+](=O)[O-])c1
inactive: 786-0 57.9 µM | A498 51.2 µM | ACHN 29.9 µM | CCRF-CEM 37.9 µM | KM12 49.9 µM | OVCAR-3 80.9 µM | OVCAR-4 14.2 µM | OVCAR-5 > 100 µM | RPMI-8226 8.22 µM | SF-539 40.2 µM | SK-MEL-28 > 100 µM | SNB-19 > 100 µM | SW-620 42.6 µM | U-251 > 100 µM | UACC-257 27.2 µM

CC(=O)Oc1ccc(Nn2c3ccccc3c3ccccc32)c(C)c1
inactive: 786-0 20.6 µM | CCRF-CEM 29.8 µM | KM12 36.6 µM | OVCAR-3 42.6 µM | OVCAR-5 > 100 µM | RPMI-8226 15.7 µM | SF-539 > 10 µM | SK-MEL-28 67.6 µM | SNB-19 78.7 µM | SW-620 25.2 µM | U-251 46 µM | UACC-257 33.4 µM

Clc1ccc(OCc2nnc3n2N=C(c2ccccc2)CS3)cc1
inactive: 786-0 16.2 µM | ACHN 10.9 µM | KM12 15.9 µM | OVCAR-3 16.9 µM | OVCAR-4 15.6 µM | OVCAR-5 21.3 µM | RPMI-8226 10.8 µM | SF-539 18.2 µM | SK-MEL-28 21.8 µM | SNB-19 18.7 µM | SW-620 14.7 µM | U-251 17.9 µM | UACC-257 14.9 µM

CC(C)N(C(=O)C12C3C4C1C1C2C3C41I)C(C)C (stereo unspecified)
inactive: 786-0 > 100 µM | A498 > 100 µM | ACHN > 100 µM | CCRF-CEM > 100 µM | KM12 > 100 µM | OVCAR-3 > 100 µM | OVCAR-4 > 100 µM | OVCAR-5 84.3 µM | SF-539 > 10 µM | SK-MEL-28 > 100 µM | SNB-19 > 100 µM | SW-620 > 100 µM

CN1C(=O)C(=CN(C)c2ccccc2)C(=O)N(C)C1=O
inactive: 786-0 > 100 µM | A498 95.7 µM | ACHN > 100 µM | CCRF-CEM 40.4 µM | KM12 > 100 µM | OVCAR-3 90.4 µM | OVCAR-4 > 100 µM | OVCAR-5 > 100 µM | RPMI-8226 > 100 µM | SF-539 > 100 µM | SK-MEL-28 > 100 µM | SNB-19 > 100 µM | SW-620 80.5 µM | U-251 > 100 µM | UACC-257 > 100 µM

O=C1C2C(C(=O)N1c1ccccc1)C1([N+](=O)[O-])C=C3c4ccccc4N(C(=O)c4ccccc4)C32C2C(=O)N(c3ccccc3)C(=O)C21 (stereo unspecified)
inactive: 786-0 > 100 µM | A498 > 100 µM | ACHN > 100 µM | CCRF-CEM > 100 µM | KM12 > 100 µM | OVCAR-3 > 100 µM | OVCAR-5 > 100 µM | SF-539 > 10 µM | SK-MEL-28 > 100 µM | SNB-19 > 100 µM | SW-620 > 100 µM | U-251 > 100 µM | UACC-257 > 100 µM

CC1(Cl)CC(C)(/C=C/Cl)C(Cl)CC1Cl (stereo unspecified)
inactive: 786-0 15.4 µM | A498 19.2 µM | ACHN 14.7 µM | CCRF-CEM 19.1 µM | KM12 16.6 µM | OVCAR-3 14.5 µM | OVCAR-4 17.7 µM | OVCAR-5 18.9 µM | SF-539 17.1 µM | SK-MEL-28 15 µM | SNB-19 17.4 µM | SW-620 15.7 µM | U-251 16.9 µM

O=C(c1ccccc1)C1N=NN(Cc2ccccc2[N+](=O)[O-])C1C(=O)c1ccccc1 (stereo unspecified)
inactive: 786-0 > 100 µM | ACHN > 100 µM | CCRF-CEM > 100 µM | KM12 > 100 µM | OVCAR-3 > 100 µM | OVCAR-4 > 100 µM | OVCAR-5 > 100 µM | RPMI-8226 > 100 µM | SK-MEL-28 > 100 µM | SNB-19 > 100 µM | SW-620 > 100 µM | U-251 > 100 µM | UACC-257 > 100 µM

COc1ccc(C2ON(c3cccc(C)n3)CC=C2C)cc1 (stereo unspecified)
inactive: 786-0 44.7 µM | ACHN 56 µM | CCRF-CEM 42.9 µM | KM12 36.3 µM | OVCAR-3 > 100 µM | OVCAR-4 62.5 µM | OVCAR-5 > 100 µM | RPMI-8226 30.9 µM | SF-539 60 µM | SK-MEL-28 23.7 µM | SNB-19 97.1 µM | SW-620 30.6 µM | U-251 32.4 µM | UACC-257 31 µM

CC1(O)CC2C(CC1SC1CC3C(CC1(C)O)C3(C)C)C2(C)C (stereo unspecified)
inactive: 786-0 43.6 µM | ACHN 35 µM | CCRF-CEM 27 µM | KM12 46.8 µM | OVCAR-3 38.8 µM | OVCAR-4 21.7 µM | OVCAR-5 78.9 µM | RPMI-8226 41.9 µM | SF-539 > 100 µM | SK-MEL-28 > 100 µM | U-251 41.6 µM | UACC-257 49 µM

CC1=C(CC2C(=O)N(c3ccccc3)S(=O)(=O)NC2C)C(=O)N(c2ccccc2)S(=O)(=O)N1C (stereo unspecified)
inactive: 786-0 > 100 µM | ACHN > 100 µM | CCRF-CEM > 100 µM | KM12 > 100 µM | OVCAR-3 > 100 µM | OVCAR-4 > 100 µM | OVCAR-5 > 100 µM | RPMI-8226 > 100 µM | SF-539 > 100 µM | SK-MEL-28 > 100 µM | SNB-19 > 100 µM | SW-620 > 100 µM | U-251 > 10 µM

COc1cc2c(cc1OC)C1c3ccccc3C(C#N)(C2)N(C(=O)c2ccccc2)C1O (stereo unspecified)
inactive: 786-0 > 100 µM | ACHN 50 µM | CCRF-CEM 52.1 µM | KM12 46.5 µM | OVCAR-3 52.1 µM | OVCAR-5 > 100 µM | RPMI-8226 45 µM | SF-539 > 100 µM | SK-MEL-28 > 100 µM | SNB-19 59 µM | SW-620 65 µM | U-251 56.5 µM | UACC-257 60.7 µM

Fc1cccc(/C=N/C23CC4CC(CC(C4)C2)C3)c1
inactive: 786-0 > 100 µM | A498 > 100 µM | ACHN > 100 µM | CCRF-CEM > 100 µM | KM12 > 100 µM | OVCAR-3 > 100 µM | OVCAR-4 > 100 µM | OVCAR-5 > 100 µM | RPMI-8226 > 100 µM | SF-539 > 100 µM | SK-MEL-28 > 100 µM | SNB-19 > 100 µM | U-251 > 100 µM | UACC-257 > 100 µM

CCN(c1n[n+]2c(-c3ccccc3)csc2s1)c1n[n+]2c(-c3ccccc3)csc2s1
inactive: 786-0 > 100 µM | ACHN > 100 µM | CCRF-CEM 32.5 µM | KM12 30.8 µM | OVCAR-3 71.8 µM | OVCAR-4 35.4 µM | OVCAR-5 > 100 µM | RPMI-8226 29.6 µM | SF-539 > 100 µM | SK-MEL-28 79.1 µM | SNB-19 > 100 µM | SW-620 94.6 µM | U-251 > 100 µM | UACC-257 36.9 µM
